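GI50: concentration for 50% inhibition of growth. Definition used: TGI = concentration required for complete inhibition of growth.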
How the values were obtained:
Assay in all cases: NCI anticancer screen, dose series, 384-well format
HOP-62 NSCLC = test system: HOP-62 NSCLC
ACHN renal = test system: ACHN renal
TK-10 renal = test system: TK-10 renal
A498 renal = test system: A498 renal
SN12C renal = test system: SN12C renal
CAKI-1 renal = test system: CAKI-1 renal
DU-145 prostate = test system: DU-145 prostate
NCI-H322M lung = test system: NCI-H322M lung
RXF 393 renal = test system: RXF 393 renal
EKVX NSCLC = test system: EKVX NSCLC
NCI-H522 lung = test system: NCI-H522 lung
PC-3 prostate = test system: PC-3 prostate
MCF7 breast = test system: MCF7 breast
SF-268 CNS = test system: SF-268 CNS
SNB-75 CNS = test system: SNB-75 CNS
KM12 colon = test system: KM12 colon
NCI-H226 lung = test system: NCI-H226 lung
SK-MEL-2 melanoma = test system: SK-MEL-2 melanoma
OVCAR-4 ovarian = test system: OVCAR-4 ovarian
UO-31 renal = test system: UO-31 renal
LOX IMVI melanoma = test system: LOX IMVI melanoma
BT-549 breast = test system: BT-549 breast
SNB-19 CNS = test system: SNB-19 CNS
SR leukemia = test system: SR leukemia
SK-MEL-28 melanoma = test system: SK-MEL-28 melanoma
CCRF-CEM leukemia = test system: CCRF-CEM leukemia
HL-60(TB) leukemia = test system: HL-60(TB) leukemia
HS 578T breast = test system: HS 578T breast
HOP-92 NSCLC = test system: HOP-92 NSCLC
HCT-15 colon = test system: HCT-15 colon
OVCAR-8 ovarian = test system: OVCAR-8 ovarian
COLO 205 colon = test system: COLO 205 colon
U251 glioblastoma = test system: U251 glioblastoma
SK-OV-3 ovarian = test system: SK-OV-3 ovarian
OVCAR-3 ovarian = test system: OVCAR-3 ovarian
A549 NSCLC = test system: A549 NSCLC
SF-539 CNS = test system: SF-539 CNS
HCC-2998 colon = test system: HCC-2998 colon
UACC-257 melanoma = test system: UACC-257 melanoma
HCT-116 colon = test system: HCT-116 colon
NCI-H23 lung = test system: NCI-H23 lung
786-0 renal = test system: 786-0 renal
OVCAR-5 ovarian = test system: OVCAR-5 ovarian
SF-295 CNS = test system: SF-295 CNS
T-47D breast = test system: T-47D breast
K-562 leukemia = test system: K-562 leukemia
SW-620 colon = test system: SW-620 colon

Work on `CS(=O)(=O)c1ccc(Oc2cc(F)cc(C#N)c2)c2c1[C@H](O)C(F)(F)C2` yielded a GI50 (HOP-62 NSCLC) of over 100 µM, a TGI (HOP-62 NSCLC) of over 100 µM and a GI50 (ACHN renal) of over 100 µM. For the same compound, the TGI (ACHN renal) was over 100 µM, the GI50 (TK-10 renal) was over 100 µM and the TGI (TK-10 renal) was over 100 µM. It also gave a GI50 (A498 renal) of over 100 µM, a TGI (A498 renal) of over 100 µM and a GI50 (SN12C renal) of over 100 µM. It also gave a TGI (SN12C renal) of over 100 µM, a GI50 (CAKI-1 renal) of over 78.9 µM and a TGI (CAKI-1 renal) of over 100 µM. The GI50 (DU-145 prostate) was over 100 µM, the TGI (DU-145 prostate) was over 100 µM and the GI50 (NCI-H322M lung) was over 100 µM. It also gave a TGI (NCI-H322M lung) of over 100 µM, a GI50 (RXF 393 renal) of over 100 µM and a TGI (RXF 393 renal) of over 100 µM. It also gave a GI50 (EKVX NSCLC) of over 100 µM, a TGI (EKVX NSCLC) of over 100 µM and a GI50 (NCI-H522 lung) of over 100 µM. For the same compound, the TGI (NCI-H522 lung) was over 100 µM, the GI50 (PC-3 prostate) was over 100 µM and the TGI (PC-3 prostate) was over 100 µM. It also gave a GI50 (MCF7 breast) of over 100 µM, a TGI (MCF7 breast) of over 100 µM and a GI50 (SF-268 CNS) of over 100 µM. It also gave a TGI (SF-268 CNS) of over 100 µM, a GI50 (SNB-75 CNS) of over 100 µM and a TGI (SNB-75 CNS) of over 100 µM. It also gave a GI50 (KM12 colon) of over 100 µM, a TGI (KM12 colon) of over 100 µM and a GI50 (NCI-H226 lung) of over 100 µM. For the same compound, the TGI (NCI-H226 lung) was over 100 µM, the GI50 (SK-MEL-2 melanoma) was over 100 µM and the TGI (SK-MEL-2 melanoma) was over 100 µM. For the same compound, the GI50 (OVCAR-4 ovarian) was over 100 µM, the TGI (OVCAR-4 ovarian) was over 100 µM and the GI50 (UO-31 renal) was over 100 µM. For the same compound, the TGI (UO-31 renal) was over 100 µM, the GI50 (LOX IMVI melanoma) was over 100 µM and the TGI (LOX IMVI melanoma) was over 100 µM. For the same compound, the GI50 (BT-549 breast) was over 100 µM, the TGI (BT-549 breast) was over 100 µM and the GI50 (SNB-19 CNS) was over 100 µM. It also gave a TGI (SNB-19 CNS) of over 100 µM, a GI50 (SR leukemia) of over 73.6 µM and a TGI (SR leukemia) of over 100 µM. It also gave a GI50 (SK-MEL-28 melanoma) of over 100 µM, a TGI (SK-MEL-28 melanoma) of over 100 µM and a GI50 (CCRF-CEM leukemia) of over 100 µM. It also gave a TGI (CCRF-CEM leukemia) of over 100 µM, a GI50 (HL-60(TB) leukemia) of over 66 µM and a TGI (HL-60(TB) leukemia) of over 100 µM. It also gave a GI50 (HS 578T breast) of over 100 µM, a TGI (HS 578T breast) of over 100 µM and a GI50 (HOP-92 NSCLC) of over 100 µM. It also gave a TGI (HOP-92 NSCLC) of over 100 µM, a GI50 (HCT-15 colon) of over 100 µM and a TGI (HCT-15 colon) of over 100 µM. The GI50 (OVCAR-8 ovarian) was over 100 µM, the TGI (OVCAR-8 ovarian) was over 100 µM and the GI50 (COLO 205 colon) was over 100 µM. It also gave a TGI (COLO 205 colon) of over 100 µM, a GI50 (U251 glioblastoma) of over 100 µM and a TGI (U251 glioblastoma) of over 100 µM. The GI50 (SK-OV-3 ovarian) was over 100 µM, the TGI (SK-OV-3 ovarian) was over 100 µM and the GI50 (OVCAR-3 ovarian) was over 100 µM. It also gave a TGI (OVCAR-3 ovarian) of over 100 µM, a GI50 (A549 NSCLC) of over 100 µM and a TGI (A549 NSCLC) of over 100 µM. For the same compound, the GI50 (SF-539 CNS) was over 100 µM, the TGI (SF-539 CNS) was over 100 µM and the GI50 (HCC-2998 colon) was over 100 µM. The TGI (HCC-2998 colon) was over 100 µM, the GI50 (UACC-257 melanoma) was over 100 µM and the TGI (UACC-257 melanoma) was over 100 µM. The GI50 (HCT-116 colon) was over 100 µM, the TGI (HCT-116 colon) was over 100 µM and the GI50 (NCI-H23 lung) was over 100 µM. For the same compound, the TGI (NCI-H23 lung) was over 100 µM, the GI50 ([…]-0 renal) was over 100 µM and the TGI (786-0 renal) was over 100 µM. The GI50 (OVCAR-5 ovarian) was over 100 µM, the TGI (OVCAR-5 ovarian) was over 100 µM and the GI50 (SF-295 CNS) was over 100 µM. The TGI (SF-295 CNS) was over 100 µM, the GI50 (T-47D breast) was over 100 µM and the TGI (T-47D breast) was over 100 µM. The GI50 (K-562 leukemia) was over 100 µM, the TGI (K-562 leukemia) was over 100 µM and the GI50 (SW-620 colon) was over 100 µM. For the same compound, the TGI (SW-620 colon) was over 100 µM.
For `CC(C)n1c(=O)n(C)c2cnc3cc(F)c(-c4ccc(OCCCN5CCCCC5)nc4)cc3c21`, the GI50 (HOP-62 NSCLC) was over 33.2 µM, the TGI (HOP-62 NSCLC) was over 100 µM and the GI50 (ACHN renal) was over 60.2 µM. The TGI (ACHN renal) was over 100 µM, the GI50 (TK-10 renal) was 51.7 µM and the TGI (TK-10 renal) was over 100 µM. For the same compound, the GI50 (A498 renal) was over 73.4 µM, the TGI (A498 renal) was over 100 µM and the GI50 (SN12C renal) was 25.8 µM. For the same compound, the TGI (SN12C renal) was over 100 µM, the GI50 (CAKI-1 renal) was 16.7 µM and the TGI (CAKI-1 renal) was over 95.8 µM. The GI50 (DU-145 prostate) was over 89.7 µM, the TGI (DU-145 prostate) was over 100 µM and the GI50 (NCI-H322M lung) was over 100 µM. For the same compound, the TGI (NCI-H322M lung) was over 100 µM, the GI50 (RXF 393 renal) was over 63.4 µM and the TGI (RXF 393 renal) was over 100 µM. For the same compound, the GI50 (EKVX NSCLC) was 11.6 µM, the TGI (EKVX NSCLC) was over 100 µM and the GI50 (NCI-H522 lung) was 20.8 µM. For the same compound, the TGI (NCI-H522 lung) was over 82 µM, the GI50 (PC-3 prostate) was 19.6 µM and the TGI (PC-3 prostate) was over 100 µM. For the same compound, the GI50 (MCF7 breast) was over 56.4 µM, the TGI (MCF7 breast) was over 100 µM and the GI50 (SF-268 CNS) was 45.4 µM. The TGI (SF-268 CNS) was over 100 µM, the GI50 (SNB-75 CNS) was 20.6 µM and the TGI (SNB-75 CNS) was over 100 µM. The GI50 (KM12 colon) was 4.57 µM, the TGI (KM12 colon) was over 100 µM and the GI50 (NCI-H226 lung) was 14.3 µM. The TGI (NCI-H226 lung) was over 100 µM, the GI50 (SK-MEL-2 melanoma) was 35.2 µM and the TGI (SK-MEL-2 melanoma) was over 70 µM. The GI50 (OVCAR-4 ovarian) was over 100 µM, the TGI (OVCAR-4 ovarian) was over 100 µM and the GI50 (UO-31 renal) was 83.8 µM. For the same compound, the TGI (UO-31 renal) was over 100 µM, the GI50 (LOX IMVI melanoma) was 72.5 µM and the TGI (LOX IMVI melanoma) was over 100 µM. It also gave a GI50 (BT-549 breast) of 9.56 µM, a TGI (BT-549 breast) of over 100 µM and a GI50 (SNB-19 CNS) of over 95.5 µM. For the same compound, the TGI (SNB-19 CNS) was over 100 µM, the GI50 (SR leukemia) was 7.14 µM and the TGI (SR leukemia) was 19.4 µM. It also gave a GI50 (SK-MEL-28 melanoma) of over 100 µM, a TGI (SK-MEL-28 melanoma) of over 100 µM and a GI50 (CCRF-CEM leukemia) of 10.1 µM. It also gave a TGI (CCRF-CEM leukemia) of over 46.7 µM, a GI50 (HL-60(TB) leukemia) of 11.8 µM and a TGI (HL-60(TB) leukemia) of 47 µM. The GI50 (HS 578T breast) was 3.91 µM, the TGI (HS 578T breast) was 27.4 µM and the GI50 (HOP-92 NSCLC) was over 54.4 µM. For the same compound, the TGI (HOP-92 NSCLC) was over 100 µM, the GI50 (HCT-15 colon) was 52.3 µM and the TGI (HCT-15 colon) was over 100 µM. The GI50 (OVCAR-8 ovarian) was over 43.4 µM, the TGI (OVCAR-8 ovarian) was over 100 µM and the GI50 (COLO 205 colon) was over 100 µM. It also gave a TGI (COLO 205 colon) of over 100 µM, a GI50 (U251 glioblastoma) of over 70.8 µM and a TGI (U251 glioblastoma) of over 100 µM. For the same compound, the GI50 (SK-OV-3 ovarian) was over 62.5 µM, the TGI (SK-OV-3 ovarian) was over 100 µM and the GI50 (OVCAR-3 ovarian) was 38.9 µM. It also gave a TGI (OVCAR-3 ovarian) of over 100 µM, a GI50 (A549 NSCLC) of over 100 µM and a TGI (A549 NSCLC) of over 100 µM. For the same compound, the GI50 (SF-539 CNS) was over 84.1 µM, the TGI (SF-539 CNS) was over 100 µM and the GI50 (HCC-2998 colon) was 30.5 µM. For the same compound, the TGI (HCC-2998 colon) was over 80.3 µM, the GI50 (UACC-257 melanoma) was 36.3 µM and the TGI (UACC-257 melanoma) was over 100 µM. The GI50 (HCT-116 colon) was 21.7 µM, the TGI (HCT-116 colon) was over 100 µM and the GI50 (NCI-H23 lung) was over 77.1 µM. It also gave a TGI (NCI-H23 lung) of over 100 µM, a GI50 ([…]-0 renal) of over 77.4 µM and a TGI (786-0 renal) of over 100 µM. For the same compound, the GI50 (OVCAR-5 ovarian) was over 100 µM, the TGI (OVCAR-5 ovarian) was over 100 µM and the GI50 (SF-295 CNS) was over 100 µM. The TGI (SF-295 CNS) was over 100 µM, the GI50 (T-47D breast) was over 48.5 µM and the TGI (T-47D breast) was over 100 µM. It also gave a GI50 (K-562 leukemia) of 4.93 µM, a TGI (K-562 leukemia) of over 46.8 µM and a GI50 (SW-620 colon) of 19.5 µM. For the same compound, the TGI (SW-620 colon) was over 75.8 µM.

— PubChem BioAssay (NCI)
